The target in one data set is JNK3 (Homo sapiens, UniProt P53779). To be noted: cited from earlier work.
The next data set deals with Primary neurons. Put plainly: Degeneration of primary neurons transfected with siRNA-Smn or scrambled siRNA (tubulin staining, confocal microscopy). The class given is cell-based, mice. Here is the method:
(§1) Primary neurons transfected with scrambled siRNA (Control) and SMN specific siRNA (siRNA-Smn) were treated with DMSO or SP600125 after 36 h (post-transfection). Neurons were incubated for additional 60 h, fixed and stained with antibodies to Tubulin and phospho-JNK. Stained neurons were examined by confocal microscopy. Primary neurons transfected with scrambled siRNA (Control) and SMN specific siRNA (siRNA-Smn) were treated with DMSO or SP600125 after 36 h (post-transfection). Neurons were incubated for additional 60 h, fixed and stained with antibodies to Tubulin and phospho-c-Jun. Stained neurons were examined by confocal microscopy. To determine whether JNK activity is required for neurodegeneration, the effect of JNK inhibitor (SP600125) was examine on degeneration of neurons caused by SMN-deficiency. […] The knockdown of SMN neurons treated with solvent (DMSO) results in degeneration of neurons as expected. […] To determine whether the neuroprotection is a result of JNK inhibition achieved by treatment of SP600125, the phosphorylation of c-Jun was examined. […] To determine whether activation of JNK is normal in neurons treated with siRNA and JNK inhibitor, phospho-JNK was examined because JNK is activated by phosphorylation.

Data set [1] relates to phosphorylation of c-Jun. The experiment in a line: Phospho-c-Jun staining in primary neurons lacking SMN. The class given is cell-based, mice. To be noted: neurons lacking SMN (siRNA-Smn), vs untreated with JNK inhibitor. The procedure:
as §1, with “Primary” for “Primary neurons transfected with scrambled siRNA (Control) and SMN specific siRNA (siRNA-Smn) were treated with DMSO or SP600125 after 36 h (post-transfection). Neurons were incubated for additional 60 h, fixed and stained with antibodies to Tubulin and phospho-JNK. Stained neurons were examined by confocal microscopy. Primary”

A further data set concerns phospho-JNK. Put plainly: Phospho-JNK staining in primary neurons lacking SMN. The note with it: neurons treated with siRNA+SP600125. In kind it is cell-based, mice. Here is the method: as §1, with “phospho-JNK.” for “phospho-JNK. Stained neurons were examined by confocal microscopy. Primary neurons transfected with scrambled siRNA (Control) and SMN specific siRNA (siRNA-Smn) were treated with DMSO or SP600125 after 36 h (post-transfection). Neurons were incubated for additional 60 h, fixed and stained with antibodies to Tubulin and phospho-c-Jun.”

The target of another data set is JNK-1, -2, and -3. The note with it: ATP-competitive reversible inhibitor; cited from earlier work.
For data set [2], the system named is a range of kinases and enzymes. To be noted: cited from earlier work.
In data set [3] the test system is phosphorylation of c-Jun. To be noted: in cells; cited from earlier work.
The next data set relates to tumor necrosis factor-α. The note with it: animal studies; cited from earlier work.
The test system of a further data set is CD4+ CD8+ thymocytes. The note with it: animal studies; cited from earlier work.

This is an account of results in patent US20120077753A1, “JNK INHIBITORS FOR USE IN TREATING SPINAL MUSCULAR ATROPHY” (priority 2009, published 2012).

The structures appear in SMILES notation. Some results are limits rather than exact numbers.

JNK3, sequence (P53779 whole entry, species assumed): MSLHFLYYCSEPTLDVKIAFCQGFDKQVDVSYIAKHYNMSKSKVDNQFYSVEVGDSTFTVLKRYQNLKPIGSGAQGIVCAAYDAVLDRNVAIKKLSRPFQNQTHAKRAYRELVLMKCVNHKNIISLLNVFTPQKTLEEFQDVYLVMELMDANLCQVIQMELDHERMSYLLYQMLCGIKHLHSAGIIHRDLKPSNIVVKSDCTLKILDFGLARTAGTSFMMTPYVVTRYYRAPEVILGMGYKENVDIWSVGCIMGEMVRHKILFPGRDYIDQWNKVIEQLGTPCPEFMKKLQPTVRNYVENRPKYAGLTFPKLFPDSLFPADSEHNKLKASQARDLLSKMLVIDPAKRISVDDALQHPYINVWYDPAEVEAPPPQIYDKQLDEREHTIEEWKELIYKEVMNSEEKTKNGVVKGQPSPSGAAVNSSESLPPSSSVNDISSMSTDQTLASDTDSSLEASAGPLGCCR

For `O=C1c2c(CCCCCNc3ccccc3)cccc2-c2n[nH]c3cccc1c23` [7-(5-7V-Phenylaminopentyl)-2H-anthra[1,9-cd]pyrazol-6-one], the JNK3 selectivity result on JNK3 is on record as “selective inhibitors of JNK3”.

As for `O=C(NCCCCCCCNc1cccc2c1C(=O)c1cccc3[nH]nc-2c13)c1ccccc1` [7-(7-7V-Benzoylaminoheptyl)amino-2H-anthra[1,9-cd]pyrazol-6-one], on JNK3, the JNK3 selectivity entry is given as “selective inhibitors of JNK3”.

Regarding `Cc1ccc(OCCCCCNc2cccc3c2C(=O)c2cccc4[nH]nc-3c24)cc1` [7-(5-(p-Tolyloxy)pentyl)amino-2H-anthra[1,9-cd]pyrazol-6-one], the JNK3 selectivity result at JNK3 is “selective inhibitors of JNK3”.

On to `O=C1c2ccccc2-c2n[nH]c3cccc1c23` [SP600125, Anthra[1,9-cd]pyrazol-6(2H)-on], for which the “neuron degeneration in control experiments” value in the data set on Primary neurons (control neurons, SP600125) is recorded as “did not cause neuron degeneration”. In addition, in the data set on Primary neurons (neurons transfected with siRNA-Smn, inhibitor added 36 h post-transfection, additional 60 h, vs solvent (DMSO)), the “degeneration of neurons caused by SMN-deficiency” value is “marked reduction in degeneration”. For the same compound, the “phosphorylation of c-Jun” value with phosphorylation of c-Jun [1] is on record as “marked reduction in the phosphorylation of c-Jun”. For the same compound, in the data set on phospho-JNK, the “phospho-JNK (JNK activation)” value is “presence of phospho-JNK”. For the same compound, at JNK-1, -2, and -3, the inhibition constant (Ki) is 190 nM. The “selectivity vs. a range of kinases and enzymes tested” value in [2] is listed as > 20 fold. In the data set on phosphorylation of c-Jun [3], the “inhibition of the phosphorylation of c-Jun” value was “dose-dependent inhibition”. In addition, the “bacterial lipopolysaccharide-induced expression of tumor necrosis factor-α” value with tumor necrosis factor-α is listed as “inhibited”. The “anti-CD3-induced apoptosis of CD4+ CD8+ thymocytes” value in the data set with CD4+ CD8+ thymocytes is listed as “prevented”.
